Measurements: patent US7786141B2 (Vertex Pharmaceuticals Incorporated, priority 2004, dated 2010)

Assays:
[1] = biological target: T1, M1 muscarinic receptor (Homo sapiens, UniProt P11229); assay: Functional mobilization of intracellular calcium (FLIPR) in M1-CHO cells; assay type: cell-based; conditions: Table 4; for Emax: 100% efficacy is the maximum response obtained with the Carbachol control; for M1 Activity: modulating M1 receptor
T1 construct: expressed in transfected cells; host or cells: CHO (M1-CHO)
T1 sequence (P11229 1-460): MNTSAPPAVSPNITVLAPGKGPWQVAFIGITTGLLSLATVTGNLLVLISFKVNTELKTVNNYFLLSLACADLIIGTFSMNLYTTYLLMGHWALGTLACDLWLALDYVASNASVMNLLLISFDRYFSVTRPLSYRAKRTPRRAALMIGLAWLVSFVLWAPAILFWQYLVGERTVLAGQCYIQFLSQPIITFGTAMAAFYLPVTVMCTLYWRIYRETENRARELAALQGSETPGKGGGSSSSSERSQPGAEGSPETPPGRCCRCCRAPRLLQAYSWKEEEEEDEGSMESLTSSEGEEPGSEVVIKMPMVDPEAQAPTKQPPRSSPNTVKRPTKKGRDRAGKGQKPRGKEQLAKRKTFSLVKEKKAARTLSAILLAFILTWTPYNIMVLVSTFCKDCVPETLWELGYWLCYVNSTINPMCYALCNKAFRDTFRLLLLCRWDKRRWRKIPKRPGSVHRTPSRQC
Procedure, shortened: (§1)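 Intracellular calcium rise is measured by FLIPR fluorescence over 60 sec in CHO cells carrying human M1 or M4 receptors. Compounds are tested alone as agonists, or pre-incubated 15 min (or co-applied) ahead of carbachol at its EC80 to detect inhibition.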

[2] = biological target: T2, M4 muscarinic receptor (Homo sapiens, UniProt P08173); assay: Functional mobilization of intracellular calcium (FLIPR) in M4-CHO cells; assay type: cell-based; conditions: Table 4; for Emax: 100% efficacy is the maximum response obtained with the Carbachol control; for M4 Activity: modulating M4 receptor
T2 construct: expressed in transfected cells; host or cells: CHO (M4-CHO)
T2 sequence (P08173 1-479): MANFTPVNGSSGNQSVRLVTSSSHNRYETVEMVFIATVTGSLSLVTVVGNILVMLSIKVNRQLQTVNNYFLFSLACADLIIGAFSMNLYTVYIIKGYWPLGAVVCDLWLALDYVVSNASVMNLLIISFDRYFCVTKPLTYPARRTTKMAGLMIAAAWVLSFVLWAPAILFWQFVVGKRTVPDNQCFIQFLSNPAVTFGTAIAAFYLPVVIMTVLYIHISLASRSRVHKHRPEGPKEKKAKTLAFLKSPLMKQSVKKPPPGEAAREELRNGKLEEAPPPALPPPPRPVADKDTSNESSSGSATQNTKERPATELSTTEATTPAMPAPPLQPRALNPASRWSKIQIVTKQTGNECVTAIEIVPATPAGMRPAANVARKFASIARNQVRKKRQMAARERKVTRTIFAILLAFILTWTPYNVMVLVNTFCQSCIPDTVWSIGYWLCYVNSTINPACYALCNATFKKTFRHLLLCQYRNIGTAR
Procedure, shortened: as §1

## CCOC(=O)N1C2CCC1CC(N1CCC3(CC[C@@H](NC(C)=O)c4ccccc43)CC1)C2 (stereo partly shown) [compound 669]
[1]
  Emax: 25 to 100%
  M1 Activity: xxx (activity was measured to be less than 2.0 μM)
[2]
  Emax: 25 to 100%
  M4 Activity: xxx (activity was measured to be less than 2.0 μM)

## CCCN1CC2(CCN(C[C@@H]3C[C@H]4C=C[C@H]3C4)CC2)c2cc(F)ccc21 [compound 670]
[1]
  Emax: 25 to 100%
  M1 Activity: x (activity was measured to be greater than 5.0 μM)
[2]
  Emax: 25 to 100%
  M4 Activity: xx (activity was measured to be between 2.0 μM and 5.0 μM)

## CC(=O)N[C@H]1CC2(CCN(CC(=O)N3CCCC3)CC2)c2ccccc21 [compound 671]
[1]
  Emax: < 25%
  M1 Activity: x (activity was measured to be greater than 5.0 μM)
[2]
  Emax: < 25%
  M4 Activity: x (activity was measured to be greater than 5.0 μM)

## CC#CCOC(=O)N1CCC(N2CCC3(CC2)CN(C(C)=O)c2ccccc23)CC1 [compound 672]
[1]
  Emax: 25 to 100%
  M1 Activity: xxx (activity was measured to be less than 2.0 μM)
[2]
  Emax: 25 to 100%
  M4 Activity: xxx (activity was measured to be less than 2.0 μM)

## CN(C)C(=O)NC1CCC2(CCN(CC3CCCCC3)CC2)c2ccccc21 (stereo not shown) [compound 673]
[1]
  Emax: < 25%
  M1 Activity: x (activity was measured to be greater than 5.0 μM)
[2]
  Emax: 25 to 100%
  M4 Activity: xx (activity was measured to be between 2.0 μM and 5.0 μM)

## COCC(=O)N1CCC(N2CCC3(CC2)CN(C(=O)N(C)C)c2ccc(F)cc23)CC1 [compound 674]
[1]
  Emax: 25 to 100%
  M1 Activity: x (activity was measured to be greater than 5.0 μM)
[2]
  Emax: 25 to 100%
  M4 Activity: x (activity was measured to be greater than 5.0 μM)

## CCC#CCOC(=O)N1CC[C@H](CN2CCC3(CC2)CN(C(=O)N(C)C)c2ccc(F)cc23)C1 [compound 675]
[1]
  Emax: 25 to 100%
  M1 Activity: xxx (activity was measured to be less than 2.0 μM)
[2]
  Emax: 25 to 100%
  M4 Activity: xxx (activity was measured to be less than 2.0 μM)

## CCOC(=O)N1CCC(N2CCC3(CC2)CN(C(C)=O)c2c(-c4ccncc4)cccc23)CC1 [compound 677]
[1]
  Emax: 25 to 100%
  M1 Activity: x (activity was measured to be greater than 5.0 μM)
[2]
  Emax: < 25%
  M4 Activity: x (activity was measured to be greater than 5.0 μM)

## CC(=O)N1CC2(CCN(C3CCN(c4cncc(-c5ccccc5C)n4)CC3)CC2)c2ccccc21 [compound 678]
[1]
  Emax: 25 to 100%
  M1 Activity: xxx (activity was measured to be less than 2.0 μM)
[2]
  Emax: < 25%
  M4 Activity: x (activity was measured to be greater than 5.0 μM)

## COC(=O)N1C2CCC1CC(N1CCC3(CC1)CN(C(C)=O)c1ccccc13)C2 (stereo not shown) [compound 679]
[1]
  Emax: 25 to 100%
  M1 Activity: xxx (activity was measured to be less than 2.0 μM)
[2]
  Emax: 25 to 100%
  M4 Activity: xxx (activity was measured to be less than 2.0 μM)

## COC(=O)N1CC[C@H](CN2CCC3(CC2)CN(C(C)=O)c2ccccc23)C1 [compound 680]
[1]
  Emax: 25 to 100%
  M1 Activity: xx (activity was measured to be between 2.0 μM and 5.0 μM)
[2]
  Emax: 25 to 100%
  M4 Activity: xxx (activity was measured to be less than 2.0 μM)

## COCCOC(=O)N1CC[C@H](CN2CCC3(CC2)CN(C(C)=O)c2ccccc23)C1 [compound 681]
[1]
  Emax: 25 to 100%
  M1 Activity: x (activity was measured to be greater than 5.0 μM)
[2]
  Emax: < 25%
  M4 Activity: x (activity was measured to be greater than 5.0 μM)

## CC(=O)N[C@@H]1CC2(CCN(C3CCC3)CC2)c2ccccc21 [compound 682]
[1]
  Emax: < 25%
  M1 Activity: x (activity was measured to be greater than 5.0 μM)
[2]
  Emax: < 25%
  M4 Activity: x (activity was measured to be greater than 5.0 μM)

## CCCCOC(=O)N1CCC(N2CCC3(CC2)CN(C(C)=O)c2ccccc23)CC1 [compound 683]
[1]
  Emax: 25 to 100%
  M1 Activity: xx (activity was measured to be between 2.0 μM and 5.0 μM)
[2]
  Emax: < 25%
  M4 Activity: x (activity was measured to be greater than 5.0 μM)

## CC(=O)N[C@H]1CC2(CCN(CC3CCN(C(=O)O[C@@H]4CCOC4)CC3)CC2)c2ccccc21 [compound 684]
[1]
  Emax: < 25%
  M1 Activity: x (activity was measured to be greater than 5.0 μM)
[2]
  Emax: < 25%
  M4 Activity: x (activity was measured to be greater than 5.0 μM)

## CN(C)C(=O)N1CC2(CCN(C3CCNCC3)CC2)c2cc(F)ccc21 [compound 685]
[1]
  Emax: < 25%
  M1 Activity: x (activity was measured to be greater than 5.0 μM)
[2]
  Emax: 25 to 100%
  M4 Activity: xxx (activity was measured to be less than 2.0 μM)

## CCOC(=O)N1C2CCC1CC(N1CCC3(CC1)CN(C(C)=O)c1c(C(F)(F)F)cccc13)C2 (stereo not shown) [compound 686]
[1]
  Emax: < 25%
  M1 Activity: x (activity was measured to be greater than 5.0 μM)
[2]
  Emax: < 25%
  M4 Activity: x (activity was measured to be greater than 5.0 μM)

## CN(C)C(=O)N[C@H]1CC2(CCN(CCC3CC4CC[C@@H]3C4)CC2)c2ccccc21 (stereo partly shown) [compound 687]
[1]
  Emax: < 25%
  M1 Activity: x (activity was measured to be greater than 5.0 μM)
[2]
  Emax: < 25%
  M4 Activity: x (activity was measured to be greater than 5.0 μM)

## CCOC(=O)N1CCC(N2CCC3(CC2)CN(C(=O)N2CCCCC2)c2ccccc23)CC1 [compound 688]
[1]
  Emax: 25 to 100%
  M1 Activity: xxx (activity was measured to be less than 2.0 μM)
[2]
  Emax: 25 to 100%
  M4 Activity: xxx (activity was measured to be less than 2.0 μM)

## CCOC(=O)N1CCC(N2CCC3(CC2)CN(C2CCC4(CC2)OCCO4)c2ccc(F)cc23)CC1 [compound 689]
[1]
  Emax: > 100%
  M1 Activity: xxx (activity was measured to be less than 2.0 μM)
[2]
  Emax: 25 to 100%
  M4 Activity: xxx (activity was measured to be less than 2.0 μM)

## CC(=O)N[C@H]1CC2(CCN(C3CCCCC3)C2)c2ccc(F)cc21 (stereo partly shown) [compound 691]
[1]
  Emax: 25 to 100%
  M1 Activity: x (activity was measured to be greater than 5.0 μM)
[2]
  Emax: < 25%
  M4 Activity: x (activity was measured to be greater than 5.0 μM)

## CC(=O)N[C@H]1CC2(CCN(CC3CC4C=CC3C4)C2)c2ccc(F)cc21 (stereo partly shown) [compound 692]
[1]
  Emax: 25 to 100%
  M1 Activity: xxx (activity was measured to be less than 2.0 μM)
[2]
  Emax: 25 to 100%
  M4 Activity: xxx (activity was measured to be less than 2.0 μM)

## CCC#CCOC(=O)N1CCC(N2CCC3(CC2)CN(C(=O)N(C)C)c2ccc(F)cc23)CC1 [compound 694]
[1]
  Emax: 25 to 100%
  M1 Activity: xxx (activity was measured to be less than 2.0 μM)
[2]
  Emax: 25 to 100%
  M4 Activity: xxx (activity was measured to be less than 2.0 μM)

## CCOC(=O)N1CC[C@H](CN2CCC3(CC2)CN(C(=O)N(C)C)c2ccc(F)cc23)C1 [compound 695]
[1]
  Emax: 25 to 100%
  M1 Activity: xxx (activity was measured to be less than 2.0 μM)
[2]
  Emax: 25 to 100%
  M4 Activity: xxx (activity was measured to be less than 2.0 μM)

## CC(=O)N[C@H]1CCC2(CCN([C@@H]3CC4CC[C@@H]3C4)CC2)c2ccccc21 [compound 696]
[1]
  Emax: 25 to 100%
  M1 Activity: xx (activity was measured to be between 2.0 μM and 5.0 μM)
[2]
  Emax: 25 to 100%
  M4 Activity: xxx (activity was measured to be less than 2.0 μM)

## CC(=O)CN1CCC(N2CCC3(CC2)CN(C(C)=O)c2ccc(F)cc23)CC1 [compound 697]
[1]
  Emax: 25 to 100%
  M1 Activity: x (activity was measured to be greater than 5.0 μM)
[2]
  Emax: < 25%
  M4 Activity: x (activity was measured to be greater than 5.0 μM)

## CCOC(=O)N1CCCC(N2CCC3(CC2)CN(C(=O)N(C)C)c2ccc(F)cc23)CC1 (stereo not shown) [compound 698]
[1]
  Emax: > 100%
  M1 Activity: xxx (activity was measured to be less than 2.0 μM)
[2]
  Emax: > 100%
  M4 Activity: xxx (activity was measured to be less than 2.0 μM)

## CCCN1CCC(N2CCC3(CC2)CN(C(C)=O)c2ccc(F)cc23)CC1 [compound 699]
[1]
  Emax: < 25%
  M1 Activity: x (activity was measured to be greater than 5.0 μM)
[2]
  Emax: < 25%
  M4 Activity: x (activity was measured to be greater than 5.0 μM)
